Data taken from patent US20230405140A1, “ANTI-CD56 ANTIBODY-DRUG CONJUGATES AND THEIR USE IN THERAPY” (MCSAF INSIDE ONCOLOGY, priority 2020, published 2023).
Non-standard residues stand in square brackets, D forms with d. Residues, ends and D or L forms follow the SMILES beside them. *: point of attachment. Dolaproine = CO[C@@H]([C@@H]1CCCN1)[C@@H](C)C(=O)O; Dil = CC[C@H](C)[C@H](NC)[C@@H](CC(=O)O)OC; X1 = C[C@@H](N*)[C@@H](O)c1ccccc1; NMeV = CN[C@H](C(=O)O)C(C)C

Legend:
Assay in all cases: XTT assay, ADC-mediated cytotoxicity
Assay type in all cases: cell-based
MKL-1 CRISPR CD56 = settings: 4 days, CD56− cells, read-out: MKL-1 CRISPR CD56 n = 3 IC50
H69 = settings: 4 days, read-out: H69 n = 3 IC50
Method: (§1) To evaluate cell viability and cellular metabolic activity, XTT assays were performed according to standard protocols. WaGa, PeTa, H69, H209, H660 cell lines were plated in 3 replicates in a 96-well plate with 5.10^4 cells/well. […] Untreated cells were used as viability reference. Cells treated with 1% Triton X100 were used as cell death positive control. After 4 days, 25 μL XTT reagent at 1 mg/mL (Alfa Aesar, thermo Fisher) with N-methyl dibenzopyrazine methyl sulfate (PMS) activator (25 μM) was added per well and absorbance was measured at 450 nm after 4 h incubation. Absorbance at 620 nm was used as a reference. Three independent experiments have been performed.

PeTa = settings: 4 days, read-out: PeTa n = 3 IC50
Method: as §1

WaGa = settings: 4 days, read-out: WaGa n = 3 IC50
Method: as §1

H209 = settings: 4 days, read-out: H209 n = 3 IC50
Method: as §1

WaGa CRISPR CD56 = settings: 4 days, CD56− cells, read-out: WaGa CRISPR CD56 n = 3 IC50
Method: as §1

In the case of `CC[C@H](C)[C@@H]([C@@H](CC(=O)N1CCC[C@H]1[C@H](OC)[C@@H](C)C(=O)N[C@H](C)[C@@H](O)c1ccccc1)OC)N(C)C(=O)[C@@H](NC(=O)[C@@H](NC)C(C)C)C(C)C` [MMAE, monomethyl auristatin E, reference compound] (H-[NMeV]V[Dil][Dolaproine]-X1), the IC50 (MKL-1 CRISPR CD56) is reported as 0.856 nM, the IC50 (H69) is reported as 0.888 nM and the IC50 (PeTa) is reported as 1.11 nM. It also gave an IC50 (WaGa) of 3.07 nM, an IC50 (H209) of 2.24 nM and an IC50 (WaGa CRISPR CD56) of 0.942 nM.
